Reference: patent publication US12077503B2, “Substituted cyclic amides and their use as herbicides” (FMC CORPORATION, priority 2015, dated 2024)

What was measured:
Format in all cases: in vivo
[1] = test system: redroot pigweed (Amaranthus retroflexus); assay: Test G Pre-Emergence Protocol; details: evaluated after 13 days; for pest or weed control at 15.625 g/ha: 15.625 g ai/ha; for pest or weed control at 62.5 g/ha: 62.5 g ai/ha, 100=total damage to plant, 0=no damage to plant, read-out: Pigweed, Redroot damage rating
Procedure, shortened: (§1)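 Pots of seeds in standard soil were grown for one day in a glasshouse (24/16 °C day/night, 14 h light, 65% humidity), then sprayed with compound in acetone/water 50:50 with 0.5% Tween 20 at 15.625, 62.5 or 250 g/ha. Damage was scored after 13 days on a 0 (none) to 100 (total) scale.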

corn (Zea mays) [2] = assay: Test G Pre-Emergence Protocol; details: evaluated after 13 days; for plant injury at 62.5 g/ha: 62.5 g ai/ha, 100=total damage to plant, 0=no damage to plant, read-out: Corn damage rating; for plant injury at 250 g/ha: 250 g ai/ha
Procedure, shortened: as §1

[3] = test system: giant foxtail (Setaria faberi); assay: Test G Pre-Emergence Protocol; details: Setaria faberi, pre-emergence, 312 h, evaluated after 13 days; for pest or weed control at 15.625 g/ha: 15.625 g ai/ha; for pest or weed control at 15.625 g/ha / pest or weed control at 250 g/ha: read-out: Foxtail, Giant damage rating (100=total damage to plant; 0=no damage to plant); for pest or weed control at 62.5 g/ha: 62.5 g ai/ha, 100=total damage to plant, 0=no damage to plant, read-out: Foxtail, Giant damage rating; for pest or weed control at 250 g/ha: 250 g ai/ha
Procedure, shortened: as §1

[4] = test system: velvetleaf (Abutilon theophrasti); assay: Test G Pre-Emergence Protocol; details: evaluated after 13 days; for pest or weed control at 62.5 g/ha: 62.5 g ai/ha, 100=total damage to plant, 0=no damage to plant, read-out: Velvetleaf damage rating; for pest or weed control at 250 g/ha: 250 g ai/ha
Procedure, shortened: as §1

[5] = test system: barnyardgrass (Echinochloa crus-galli); assay: Test G Pre-Emergence Protocol; details: Echinochloa crus-galli, pre-emergence, 312 h, evaluated after 13 days; for pest or weed control at 15.625 g/ha: 15.625 g ai/ha; for pest or weed control at 15.625 g/ha / pest or weed control at 250 g/ha: read-out: Barnyardgrass damage rating (100=total damage to plant; 0=no damage to plant); for pest or weed control at 62.5 g/ha: 62.5 g ai/ha, 100=total damage to plant, 0=no damage to plant, read-out: Barnyardgrass damage rating; for pest or weed control at 250 g/ha: 250 g ai/ha
Procedure, shortened: as §1

[6] = test system: ivy-leaved morning glory (Ipomoea hederacea); assay: Test G Pre-Emergence Protocol; details: evaluated after 13 days; for pest or weed control at 15.625 g/ha: 15.625 g ai/ha; for pest or weed control at 15.625 g/ha / pest or weed control at 250 g/ha: read-out: Morningglory, Ivy-leaved damage rating (100=total damage to plant; 0=no damage to plant); for pest or weed control at 250 g/ha: 250 g ai/ha
Procedure, shortened: as §1

[7] = test system: redroot pigweed (Amaranthus retroflexus); assay: Test G Post-Emergence Protocol; details: Amaranthus retroflexus, post-emergence, 312 h, read-out: Pigweed, Redroot damage rating; for pest or weed control at 15.625 g/ha: 15.625 g ai/ha, evaluated after 13 days (100=total damage to plant; 0=no damage to plant); for pest or weed control at 62.5 g/ha: 62.5 g ai/ha; for pest or weed control at 62.5 g/ha / pest or weed control at 250 g/ha: evaluated after 13 days, 100=total damage to plant, 0=no damage to plant; for pest or weed control at 250 g/ha: 250 g ai/ha
Procedure, shortened: (§2)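 Foliar application was made 8 days after sowing, using an aqueous spray of the active in acetone/water (50:50) with 0.5% Tween 20, at doses of 15.625, 62.5 or 250 g/ha. Injury was assessed 13 days later, where 100 meant the plant was fully damaged.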

corn (Zea mays) [8] = assay: Test G Post-Emergence Protocol; details: Zea mays, post-emergence, 312 h, read-out: Corn damage rating; for plant injury at 15.625 g/ha: 15.625 g ai/ha, evaluated after 13 days (100=total damage to plant; 0=no damage to plant); for plant injury at 62.5 g/ha: 62.5 g ai/ha; for plant injury at 62.5 g/ha / plant injury at 250 g/ha: evaluated after 13 days, 100=total damage to plant, 0=no damage to plant; for plant injury at 250 g/ha: 250 g ai/ha
Procedure, shortened: as §2

[9] = test system: giant foxtail (Setaria faberi); assay: Test G Post-Emergence Protocol; details: Setaria faberi, post-emergence, 312 h, read-out: Foxtail, Giant damage rating; for pest or weed control at 15.625 g/ha: 15.625 g ai/ha, evaluated after 13 days (100=total damage to plant; 0=no damage to plant); for pest or weed control at 62.5 g/ha: 62.5 g ai/ha; for pest or weed control at 62.5 g/ha / pest or weed control at 250 g/ha: evaluated after 13 days, 100=total damage to plant, 0=no damage to plant; for pest or weed control at 250 g/ha: 250 g ai/ha
Procedure, shortened: as §2

[10] = test system: velvetleaf (Abutilon theophrasti); assay: Test G Post-Emergence Protocol; details: for pest or weed control at 15.625 g/ha: 15.625 g ai/ha, evaluated after 13 days (100=total damage to plant; 0=no damage to plant); for pest or weed control at 250 g/ha: 250 g ai/ha
Procedure, shortened: as §2

[11] = test system: barnyardgrass (Echinochloa crus-galli); assay: Test G Post-Emergence Protocol; details: Echinochloa crus-galli, post-emergence, 312 h, read-out: Barnyardgrass damage rating; for pest or weed control at 15.625 g/ha: 15.625 g ai/ha, evaluated after 13 days (100=total damage to plant; 0=no damage to plant); for pest or weed control at 62.5 g/ha: 62.5 g ai/ha; for pest or weed control at 62.5 g/ha / pest or weed control at 250 g/ha: evaluated after 13 days, 100=total damage to plant, 0=no damage to plant; for pest or weed control at 250 g/ha: 250 g ai/ha
Procedure, shortened: as §2

[12] = test system: ivy-leaved morning glory (Ipomoea hederacea); assay: Test G Post-Emergence Protocol; details: for pest or weed control at 62.5 g/ha: 62.5 g ai/ha; for pest or weed control at 62.5 g/ha / pest or weed control at 250 g/ha: evaluated after 13 days, 100=total damage to plant, 0=no damage to plant; for pest or weed control at 250 g/ha: 250 g ai/ha
Procedure, shortened: as §2

[13] = Amaranthus retroflexus, pre-emergence, 312 h, read-out: Pigweed, Redroot damage rating (100=total damage to plant; 0=no damage to plant)
[14] = Amaranthus retroflexus, pre-emergence, 312 h
[15] = Zea mays, pre-emergence, 312 h, read-out: Corn damage rating (100=total damage to plant; 0=no damage to plant)
[16] = Abutilon theophrasti, pre-emergence, 312 h
[17] = Abutilon theophrasti, pre-emergence, 312 h, read-out: Velvetleaf damage rating (100=total damage to plant; 0=no damage to plant)
[18] = Abutilon theophrasti, post-emergence, 312 h, read-out: Velvetleaf damage rating
[19] = Abutilon theophrasti, post-emergence, 312 h, evaluated after 13 days, 100=total damage to plant, 0=no damage to plant, read-out: Velvetleaf damage rating
[20] = Ipomoea, post-emergence, 312 h, read-out: Morningglory, Ivy-leaved damage rating

CN1C[C@H](c2cccc(C(F)(F)F)c2)[C@@H](C(=O)Nc2cccc(F)n2)C1=O (racemic) [Compound 1671]
40%: pest or weed control at 250 g/ha [10, 19]
10: Velvetleaf damage rating ([10]; 62.5 g ai/ha, evaluated after 13 days, 100=total damage to plant, 0=no damage to plant)
90%: pest or weed control at 62.5 g/ha [3] | pest or weed control at 250 g/ha [3] | pest or weed control at 62.5 g/ha [5] | pest or weed control at 250 g/ha [5]
70%: pest or weed control at 15.625 g/ha [5] | pest or weed control at 250 g/ha ([6]; Ipomoea, pre-emergence, 312 h) | plant injury at 62.5 g/ha (corn (Zea mays) [8]) | pest or weed control at 15.625 g/ha [9] | pest or weed control at 15.625 g/ha [11] | pest or weed control at 62.5 g/ha [11] | pest or weed control at 62.5 g/ha [12, 20]
30%: pest or weed control at 62.5 g/ha [1, 14] | pest or weed control at 62.5 g/ha [4, 16] | pest or weed control at 62.5 g/ha [7]
80%: plant injury at 62.5 g/ha (corn (Zea mays) [2]; Zea mays, pre-emergence, 312 h) | plant injury at 250 g/ha (corn (Zea mays) [2]; [15]) | pest or weed control at 15.625 g/ha [3] | plant injury at 250 g/ha (corn (Zea mays) [8]) | pest or weed control at 62.5 g/ha [9] | pest or weed control at 250 g/ha [9] | pest or weed control at 250 g/ha [11]
50: Pigweed, Redroot damage rating (100=total damage to plant; 0=no damage to plant) ([1]; 250 g ai/ha)
10%: pest or weed control at 15.625 g/ha ([6]; Ipomoea, pre-emergence, 312 h) | pest or weed control at 15.625 g/ha [7]
30: Corn damage rating (100=total damage to plant; 0=no damage to plant) (corn (Zea mays) [2]; 15.625 g ai/ha)
50%: pest or weed control at 250 g/ha [7] | pest or weed control at 250 g/ha [12, 20]
20: Velvetleaf damage rating (100=total damage to plant; 0=no damage to plant) ([4]; 15.625 g ai/ha) | Morningglory, Ivy-leaved damage rating ([6]; 62.5 g ai/ha, 100=total damage to plant, 0=no damage to plant)
0: Morningglory, Ivy-leaved damage rating ([12]; 15.625 g ai/ha, evaluated after 13 days (100=total damage to plant; 0=no damage to plant))
0%: pest or weed control at 15.625 g/ha [1, 13] | pest or weed control at 15.625 g/ha [10, 18]
60%: pest or weed control at 250 g/ha [4, 17] | plant injury at 15.625 g/ha (corn (Zea mays) [8])

Cc1ccc([C@H]2CN(C)C(=O)[C@@H]2C(=O)Nc2ccc3cccnc3n2)cc1 (racemic) [Compound 1675]
0%: pest or weed control at 15.625 g/ha [1, 13] | pest or weed control at 62.5 g/ha [1, 14] | pest or weed control at 250 g/ha ([1]; Amaranthus retroflexus, pre-emergence, 312 h, 250 g ai/ha, read-out: Pigweed, Redroot damage rating (100=total damage to plant; 0=no damage to plant)) | plant injury at 15.625 g/ha (corn (Zea mays) [2]; Zea mays, pre-emergence, 312 h, 15.625 g ai/ha, read-out: Corn damage rating (100=total damage to plant; 0=no damage to plant)) | plant injury at 62.5 g/ha (corn (Zea mays) [2]; Zea mays, pre-emergence, 312 h) | plant injury at 250 g/ha (corn (Zea mays) [2]; [15]) | pest or weed control at 15.625 g/ha [3] | pest or weed control at 62.5 g/ha [3] | pest or weed control at 15.625 g/ha ([4]; Abutilon theophrasti, pre-emergence, 312 h, 15.625 g ai/ha, read-out: Velvetleaf damage rating (100=total damage to plant; 0=no damage to plant)) | pest or weed control at 62.5 g/ha [4, 16] | pest or weed control at 250 g/ha [4, 17] | pest or weed control at 15.625 g/ha [5] | pest or weed control at 62.5 g/ha [5] | pest or weed control at 250 g/ha [5] | pest or weed control at 15.625 g/ha ([6]; Ipomoea, pre-emergence, 312 h) | pest or weed control at 62.5 g/ha ([6]; Ipomoea, pre-emergence, 312 h, 62.5 g ai/ha, 100=total damage to plant, 0=no damage to plant, read-out: Morningglory, Ivy-leaved damage rating) | pest or weed control at 250 g/ha ([6]; Ipomoea, pre-emergence, 312 h) | pest or weed control at 15.625 g/ha [7] | pest or weed control at 62.5 g/ha [7] | pest or weed control at 250 g/ha [7] | plant injury at 15.625 g/ha (corn (Zea mays) [8]) | plant injury at 62.5 g/ha (corn (Zea mays) [8]) | plant injury at 250 g/ha (corn (Zea mays) [8]) | pest or weed control at 15.625 g/ha [9] | pest or weed control at 62.5 g/ha [9] | pest or weed control at 15.625 g/ha [10, 18] | pest or weed control at 62.5 g/ha ([10]; Abutilon theophrasti, post-emergence, 312 h, 62.5 g ai/ha, evaluated after 13 days, 100=total damage to plant, 0=no damage to plant, read-out: Velvetleaf damage rating) | pest or weed control at 15.625 g/ha [11] | pest or weed control at 62.5 g/ha [11] | pest or weed control at 250 g/ha [11] | pest or weed control at 15.625 g/ha ([12]; Ipomoea, post-emergence, 312 h, 15.625 g ai/ha, evaluated after 13 days (100=total damage to plant; 0=no damage to plant), read-out: Morningglory, Ivy-leaved damage rating) | pest or weed control at 62.5 g/ha [12, 20] | pest or weed control at 250 g/ha [12, 20]
10%: pest or weed control at 250 g/ha [3] | pest or weed control at 250 g/ha [10, 19]
20%: pest or weed control at 250 g/ha [9]
